{
  "source": "patent US20250120920A1",
  "about": "“DRUG-DELIVERING NERVE WRAP” (UNIVERSITY OF UTAH RESEARCH FOUNDATION, priority 2019, published 2025)",
  "key": {"whole chick DRGs": {"tested_on": "whole chick DRGs", "assay": "DRG neurite extension bioactivity verification assay", "format": "cell-based", "conditions": "20 ng/ml FK506 positive control; 72 hours culture", "experimental": "Fertilized chicken eggs (Merrills Poultry, ID, USA) were incubated at ˜39° C. under 100% relative humidity for 12 days. Dorsal root ganglions (DRG) were dissected from the embryos under a microscope. 24-well plates were coated with laminin (1 μg/ml), then 500 μL from each media sample was placed into 3 wells. DRGs were separated carefully from connective tissue for culturing and a single DRG was placed into each well. For comparison to known FK506 concentrations, DRGs were also grown in negative and positive control concentrations of FK506, 0 ng/ml and 20 ng/ml, respectively. Groups tested: 0 ng/ml FK506 (n=4), 20 ng/ml FK506 control (n=4), Day 4 collection of LD-Wrap (n=6), and Day 4 collection of HD-Wrap (n=8). amples were diluted in DMEM/F12+10% FBS and 1% Pen-Strep. HD-Wrap and LD-Wrap drug release test samples were diluted by a factor of 10 and 2, respectively. Drug release test samples average concentrations after dilution: Day 4 LD-Wrap—18.5 ng/ml FK506 and Day 4 HD-Wrap—23.1 ng/ml FK506. The plate was incubated for 72 hours at 37° C. and 5% CO2 to evaluate the released drug's bioactivity. […] Briefly, the area of the ganglion body (ADRG) and the total area of the DRG with the growing axons (Atot) were measured using ImageJ (ImageJ 1.31v, National Institutes of Health, Bethesda, USA). The average neurite length (lavg) was calculated by: lavg=(Atot/π)^1/2−(ADRG/π)^1/2. […]"}, "[1]": {"format": "physicochemical", "experimental": "The inventors discovered that FK506, in particular, is subject to thermal degradation beginning at about 140° C. when incorporated into the preferred polymers within the preferred loading ranges as disclosed herein. While conventional PLLA and PLLA co-polymer hot-melt extrusion protocols call for temperatures exceeding 140° C., limiting the maximum temperature still allows for sufficient manufacturability while minimizing or preventing unwanted thermal degradation of the FK506."}},
  "data": [
    {"smiles": "C=CC[C@@H]1/C=C(\\C)C[C@H](C)C[C@H](OC)[C@H]2O[C@@](O)(C(=O)C(=O)N3CCCC[C@H]3C(=O)O[C@H](/C(C)=C/[C@@H]3CC[C@@H](O)[C@H](OC)C3)[C@H](C)[C@@H](O)CC1=O)[C@H](C)C[C@@H]2OC", "note": "[FK506]", "values": [
      {"measurement": "Average neurite extension", "setting": "whole chick DRGs", "value": "720±72.2", "unit": "μm"},
      {"measurement": "temperature at which thermal degradation begins", "setting": "[1]", "value": "about 140 °C"}
    ]}
  ]
}
